Experimental data: patent publication US9636380B2 (priority 2013, dated 2017)

What was measured:
[1] = system: AMPA receptor; experiment: Whole-cell recording of light-evoked EPSCs (LDT inputs) in DA neurons projecting to NAc lateral shell, midbrain slices; format: cell-based, mice; details: 10 μM bath perfusion; stimulation of LDT fibers; −70 mV
Description: (§1) Mice were deeply anaesthetized with pentobarbital (200 mg/kg ip; Ovation Pharmaceuticals, Deerfield, Ill.). Coronal midbrain slices (250 μm) were prepared after intracardial perfusion with ice-cold artificial cerebrospinal fluid (ACSF) containing elevated sucrose (in mM): 50 sucrose, 125 NaCl, 25 NaHCO3, 2.5 KCl, 1.25 NaH2PO4, 0.1 CaCl2, 4.9 MgCl2, and 2.5 glucose (oxygenated with 95% O2/5% CO2). After 90 min of recovery, slices were transferred to a recording chamber and perfused continuously at 2-4 ml/min with oxygenated ACSF (125 NaCl, 25 NaHCO3, 2.5 KCl, 1.25 NaH2PO4, 11 glucose, 1.3 MgCl2, and 2.5 CaCl2) at ˜30° C. […]
(§2) Labeled DA neurons were visualized with a 40× water-immersion objective on an upright fluorescent microscope (BX51WI, Olympus USA) equipped with infrared-differential interference contrast (IR-DIC) video microscopy and epifluorescence (Olympus USA) for detection of retrobeads. […] A dual lamp house adapter (Olympus USA) was used to switch between fluorescence lamp and LED light source. Excitatory postsynaptic currents (EPSCs) were recorded in whole-cell voltage clamp (Multiclamp 700B, Molecular Devices, CA, USA), filtered at 2 KHz, digitized at 10 KHz (ITC-18 interface, HEKA) and collected on-line using custom Igor Pro software (Wavemetrics, Lake Oswego, Oreg., USA). […]

[2] = system: GABAA receptors; experiment: Whole-cell recording of light-evoked IPSCs (LHb inputs) in DA cells projecting to NAc lateral shell, midbrain slices; format: cell-based, mice; details: 50 μM bath perfusion; LHb input stimulation; n=3; p<0.0001
Description: as §1, §2

Row | Compound | Effect on light-evoked EPSCs in DA neurons projecting to NAc lateral shell [1] | Effect on light-evoked IPSCs in DA cells projecting to NAc lateral shell [2]
1 | N#Cc1cc2[nH]c(=O)c(=O)[nH]c2cc1[N+](=O)[O-] [CNQX] | blocked | 
2 | picrotoxin |  | blocked
